The IC50 is the midpoint of a concentration-inhibition curve. The GI50 is the concentration giving 50% growth inhibition.

12 molecules from patent US9890166B2, “Imidazopyrrolidine derivatives and their use in the treatment of disease” (NOVARTIS AG, priority 2013, dated 2018) can be followed below.

One assay addresses BRD4 (His-Brd4(44-477)) (Homo sapiens (Human), UniProt O60885). Put plainly: TR-FRET in-vitro binding assay for BRD4. As to conditions: single determination or n ≧ 2 independent determinations, read-out: Biochemical IC50 BRD4. The protocol:
(§1) TR-FRET In-Vitro Binding Assays for BRD2, BRD3, and BRD4:
(§2) All assays were performed in 384 well microtiter plates. Each assay plate contained 8-point serial dilutions for 40 test compounds, plus 16 high- and 16 low controls. Liquid handling and incubation steps were done on an Innovadyne Nanodrop Express equipped with a robotic arm (Thermo CatX, Perkin Elmer/Caliper Twister II) and an incubator (Liconic STX40, Thermo Cytomat 2C450). The assay plates were prepared by addition of 50 nl per well of compound solution in 90% DMSO HummingBird nanodispenser (Zinsser Analytic). […] Reactions were incubated at 30° C. for 35 minutes. […] After 35 minutes incubation at 30° C., plates were measured in a Perkin Elmer EnVision multilabel reader.
(§3) Preparation of Compound Dilutions
(§4) Test compounds were dissolved in DMSO (10 mM) and transferred into 1.4 mL flat bottom or V-shaped Matrix tubes carrying a unique 2D matrix. The stock solutions were stored at […] if not used immediately. For the test procedure the vials were defrosted and identified by a scanner whereby a working sheet was generated that guided the subsequent working steps.
(§5) Compound dilutions were made in 96 well plates. This format enabled the assay of maximally 40 individual test compounds at 8 concentrations (single points) including 4 reference compounds, if desired (known BET inhibitors from the prior art, for this and other assays of the type disclosed herein). The dilution protocol included the production of “pre-dilution plates”, “master plates” and “assay plates”.
(§6) Pre-Dilution Plates: 96 polypropylene well plates were used as pre-dilution plates. A total of 4 pre-dilution plates were prepared including 10 test compounds each on the plate positions A1-A10, one standard compound at A11 and one DMSO control at A12. All dilution steps were done on a HamiltonSTAR robot.
(§7) These plates were used directly for the assay which was performed in a total volume of 13.55 μL.
For orientation: TR-FRET usually uses a lanthanide donor and a delayed reading to cut background.

The next assay has as its target BRD3 (His-Brd3(20-477)) (Homo sapiens (Human), UniProt Q15059). Briefly: TR-FRET in-vitro binding assay for BRD3. As to conditions: single determination or n ≧ 2 independent determinations, read-out: Biochemical IC50 BRD3. The protocol: as §1, §2, §3, §4, §5, §6, §7
Assay [1] addresses CREBBP bromodomain (His-CREBBP(1081-1197)) (Homo sapiens (Human), UniProt Q92793). Briefly: AlphaScreen in-vitro binding assay for CREBBP. As to conditions: single determination or n ≧ 2 independent determinations, read-out: Biochemical IC50 CREBBP. As to the method: AlphaScreen In-Vitro Binding Assay for CREBBP
In order to assess bromodomain selectivity, we set up a binding assay using the bromodomain encoded by the CREBBP gene. […] Reactions were incubated at 30° C. for 35 minutes. Subsequently 4.5 μl per well detection mix (50 mM HEPES, pH 7.5, 0.005% Tween20, 0.02% BSA, 150 mM NaCl, 45 μg/ml Ni-chelate acceptor beads, 45 μg/mIstreptavidin-donor beads) (Perkin Elmer)) were added. After 60 minutes incubation at room temperature, plates were measured in a Perkin Elmer EnVision multilabel reader. IC50 values were determined from percent inhibition values at different compound concentrations by non-linear regression analysis.
as §3, §4, §5, §6, §7
(Alpha assays give light when donor and acceptor beads are brought close together.)

In the next assay the test system is THP-1 cells. Put plainly: Cell growth inhibition assay (CellTiter-Glo), THP-1.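 On all read-outs here: viability read as cellular ATP luminescence after 4 days, 3-fold dilution series from 10 µM, DMSO vehicle-treated cells taken as 100%, cell-free medium wells as −100%.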 As to conditions: for GI50: Homo sapiens, THP-1, read-out: THP-1 GI50; for THP-1 TGI: THP-1 cells, total growth inhibition, CellTiter-Glo. (In general: ATP-based viability assays read luminescence as a measure of living cells.)
The test system of another assay is K-562 cells. Briefly: Cell growth inhibition assay (CellTiter-Glo), K-562.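 On all read-outs here: cellular ATP measured by luminescence after 4 days of exposure, 3-fold dilution series from 10 µM, DMSO vehicle-treated cells define 100%, cell-free medium wells −100%.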 The note with it: for GI50: Homo sapiens, K562, read-out: K-562 GI50; for K-562 TGI: K-562 cells, total growth inhibition, CellTiter-Glo.
The subject of the next assay is MV-4-11 cells. Put plainly: Cell growth inhibition assay (CellTiter-Glo), MV-4-11.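 On all read-outs here: cellular ATP luminescence after 4 days, 3-fold dilution series from 10 µM top dose, vehicle (0.1% DMSO) set to 100%, cell-free medium set to −100%, day 0 corrected.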 As to conditions: for GI50: Homo sapiens, MV4-11, read-out: MV-4-11 GI50; for MV-4-11 TGI: MV-4-11 cells, total growth inhibition, CellTiter-Glo.

The structures appear in SMILES notation.

CREBBP bromodomain (His-CREBBP(1081-1197)), sequence (Q92793 1081-1197): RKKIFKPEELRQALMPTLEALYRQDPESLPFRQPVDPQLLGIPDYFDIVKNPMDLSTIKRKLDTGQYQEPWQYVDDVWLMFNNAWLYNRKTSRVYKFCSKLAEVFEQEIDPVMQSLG
BRD3 (His-Brd3(20-477)), sequence (Q15059 20-477): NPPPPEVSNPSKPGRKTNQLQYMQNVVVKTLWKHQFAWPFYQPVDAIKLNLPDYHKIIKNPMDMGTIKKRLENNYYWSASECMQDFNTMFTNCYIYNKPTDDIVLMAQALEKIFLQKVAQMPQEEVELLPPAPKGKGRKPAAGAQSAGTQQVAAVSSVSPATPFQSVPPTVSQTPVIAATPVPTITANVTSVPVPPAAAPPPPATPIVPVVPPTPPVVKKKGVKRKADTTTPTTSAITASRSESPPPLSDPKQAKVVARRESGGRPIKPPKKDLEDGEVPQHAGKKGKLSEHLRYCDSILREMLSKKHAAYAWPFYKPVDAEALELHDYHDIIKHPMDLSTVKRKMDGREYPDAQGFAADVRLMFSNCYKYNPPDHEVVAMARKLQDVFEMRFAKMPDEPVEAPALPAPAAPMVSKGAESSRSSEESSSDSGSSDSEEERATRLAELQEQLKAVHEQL

As for `Cc1cc(N2C(=O)c3nc(C4=CCOCC4)n(C(C)C)c3C2c2ccc(Cl)cc2)nc2c1nnn2C` (centres unmarked) [Example 160, 6-(4-chlorophenyl)-2-(3,6-dihydro-2H-pyran-4-yl)-5-(3,7-dimethyl-3H-[1,2,3]triazolo[4,5-b]pyridin-5-yl)-1-isopropyl-5,6-dihydropyrrolo[3,4-d]imidazol-4(1H)-one], the results for the half-maximal inhibitory concentration (IC50) (on BRD4 (His-Brd4(44-477)); on BRD3 (His-Brd3(20-477)); in assay [1]) were less than 11 nM, less than 11 nM and more than 37000 nM, respectively. In addition, the GI50 in the assay on THP-1 cells was 4.6 nM; in the assay on K-562 cells it was 25.8 nM; in the assay on MV-4-11 cells, 5.95 nM. Also, in the assay with THP-1 cells, the “THP-1 TGI” value came to 6.383 nM. The “K-562 TGI” value with K-562 cells is more than 7000 nM. Also, the “MV-4-11 TGI” value in the assay with MV-4-11 cells was 4.973 nM.

On to `COc1ncccc1-c1nc2c([nH]1)[C@@H](c1ccc(Cl)cc1)N(c1cc(C)c3nnn(C)c3n1)C2=O` [Example 166, (R)-6-(4-chlorophenyl)-5-(3,7-dimethyl-3H-[1,2,3]triazolo[4,5-b]pyridin-5-yl)-2-(2-methoxypyridin-3-yl)-5,6-dihydropyrrolo[3,4-d]imidazol-4(1H)-one], for which the IC50 at BRD4 (His-Brd4(44-477)) was 13 nM; at BRD3 (His-Brd3(20-477)), 12 nM; in assay [1], 33100 nM. Besides, the GI50 came out at 7.54 nM in the assay with THP-1 cells, 84.6 nM in the assay on K-562 cells and 5.42 nM in the assay with MV-4-11 cells. Also, the “THP-1 TGI” value with THP-1 cells was 11.28 nM. Further, the “K-562 TGI” value in the assay with K-562 cells was more than 10000 nM. Moreover, the “MV-4-11 TGI” value in the assay with MV-4-11 cells came out at 8.15 nM.

As to `COc1cc(C(F)(F)F)ccc1-c1nc2c([nH]1)C(c1ccc(Cl)cc1)N(c1cc(C)c3nnc(C)n3c1)C2=O` (centres unmarked) [Example 136, 6-(4-chlorophenyl)-5-(3,8-dimethyl-[1,2,4]triazolo[4,3-a]pyridin-6-yl)-2-(2-methoxy-4-(trifluoromethyl)phenyl)-5,6-dihydropyrrolo[3,4-d]imidazol-4(1H)-one], the IC50 is 30 nM on BRD4 (His-Brd4(44-477)), 32 nM at BRD3 (His-Brd3(20-477)) and 2600 nM in assay [1]. Besides, the GI50 is 79.4 nM in the assay with THP-1 cells, 227 nM in the assay with K-562 cells and 76.6 nM with MV-4-11 cells. In the assay on THP-1 cells, the “THP-1 TGI” value turned out to be 179.5 nM. The “K-562 TGI” value in the assay on K-562 cells was more than 10000 nM. Besides, the “MV-4-11 TGI” value in the assay on MV-4-11 cells amounted to 114 nM.

`Cc1cc(N2C(=O)c3nc(C4CCOCC4)n(C4COC4)c3C2c2ccc(Cl)cc2)cc2c1nnn2C` (centres unmarked) [Example 105, 6-(4-chlorophenyl)-5-(1,4-dimethyl-1H-benzo[d][1,2,3]triazol-6-yl)-1-(oxetan-3-yl)-2-(tetrahydro-2H-pyran-4-yl)-5,6-dihydropyrrolo[3,4-d]imidazol-4(1H)-one]: the IC50 stood at 13 nM on BRD4 (His-Brd4(44-477)), 17 nM on BRD3 (His-Brd3(20-477)) and 2000 nM in assay [1]. Besides, the GI50 with THP-1 cells stood at 12.3 nM; with K-562 cells, 90.2 nM; in the assay with MV-4-11 cells, 10.8 nM. Further, in the assay with THP-1 cells, the “THP-1 TGI” value is 27.85 nM. In the assay on K-562 cells, the “K-562 TGI” value was more than 10000 nM. Moreover, the “MV-4-11 TGI” value with MV-4-11 cells stood at 21.95 nM.

In the case of `Cc1cc(N2C(=O)c3nc(C4CCOC4)n(C(C)C)c3C2c2ccc(Cl)cc2)nn2c(C)nnc12` (centres unmarked) [Example 170, 6-(4-chlorophenyl)-5-(3,8-dimethyl-[1,2,4]triazolo[4,3-b]pyridazin-6-yl)-1-isopropyl-2-(tetrahydrofuran-3-yl)-5,6-dihydropyrrolo[3,4-d]imidazol-4(1H)-one], the IC50 on BRD4 (His-Brd4(44-477)) was 31 nM; on BRD3 (His-Brd3(20-477)), 43 nM; in assay [1] it was more than 37000 nM.

As for `COc1ncccc1-c1nc2c(n1C(C)C)C(c1ccc(Cl)cc1)N(c1cc(C)c3nnn(C)c3n1)C2=O` (centres unmarked) [Example 157, 6-(4-chlorophenyl)-5-(3,7-dimethyl-3H-[1,2,3]triazolo[4,5-b]pyridin-5-yl)-1-isopropyl-2-(2-methoxypyridin-3-yl)-5,6-dihydropyrrolo[3,4-d]imidazol-4(1H)-one], in the assay on THP-1 cells, the GI50 worked out at 8.82 nM and the “THP-1 TGI” value turned out to be 24.75 nM. For the same molecule, in the assay on K-562 cells, the GI50 was found to be 56.8 nM and the “K-562 TGI” value is more than 10000 nM. Besides, in the assay on MV-4-11 cells, the GI50 was 10.6 nM and the “MV-4-11 TGI” value stood at 15.15 nM.

As for `Cc1nc2c([nH]1)C(c1ccc(Cl)cc1)N(c1cc(C)c3nnn(C)c3c1)C2=O` (centres unmarked) [Example 1, 6-(4-chlorophenyl)-5-(3,7-dimethyl-3H-benzo[d][1,2,3]triazol-5-yl)-2-methyl-5,6-dihydropyrrolo[3,4-d]imidazol-4(1H)-one], in the assay on THP-1 cells, the concentration for 50% growth inhibition (GI50) turned out to be 38.4 nM and the “THP-1 TGI” value is 79.9 nM. Also, in the assay on K-562 cells, the GI50 is 160 nM and the “K-562 TGI” value was more than 10000 nM. In the assay with MV-4-11 cells, the GI50 was 26.3 nM and the “MV-4-11 TGI” value was 52.35 nM.

Turning to `Cc1cc(N2C(=O)c3nc(C4=CCOCC4)[nH]c3[C@H]2c2ccc(Cl)cc2)nc2c1nnn2C` [Example 165, (R)-6-(4-chlorophenyl)-2-(3,6-dihydro-2H-pyran-4-yl)-5-(3,7-dimethyl-3H-[1,2,3]triazolo[4,5-b]pyridin-5-yl)-5,6-dihydropyrrolo[3,4-d]imidazol-4(1H)-one], the IC50 came out at 19 nM at BRD4 (His-Brd4(44-477)), 18 nM on BRD3 (His-Brd3(20-477)) and 14800 nM in assay [1]. Moreover, the figures for the GI50 with THP-1 cells, with K-562 cells and with MV-4-11 cells were 4 nM, 47.9 nM and 4.12 nM, respectively. Moreover, in the assay on THP-1 cells, the “THP-1 TGI” value was 15.67 nM. The “K-562 TGI” value in the assay with K-562 cells is more than 10000 nM. Moreover, the “MV-4-11 TGI” value in the assay with MV-4-11 cells stood at 12.74 nM.

Consider `COc1cc(F)ccc1-c1nc2c([nH]1)C(c1ccc(Cl)cc1)N(c1cc(C)c3nnc(C)n3c1)C2=O` (centres unmarked) [Example 137], for which the IC50 on BRD4 (His-Brd4(44-477)) stood at 84.5 nM; at BRD3 (His-Brd3(20-477)), 89 nM. Also, the GI50 in the assay on THP-1 cells is 101 nM; with K-562 cells, 254 nM; in the assay with MV-4-11 cells, 90.2 nM. In the assay with THP-1 cells, the “THP-1 TGI” value was determined as 213 nM. In the assay on K-562 cells, the “K-562 TGI” value is more than 10000 nM. The “MV-4-11 TGI” value with MV-4-11 cells is 124.5 nM.

As to `Cc1cc(N2C(=O)c3nc(C4CCOC4)n(C(C)C)c3[C@H]2c2ccc(Cl)cc2)nn2c(C)nnc12` (stereo partly drawn) [Example 171, (6R)-6-(4-chlorophenyl)-5-(3,8-dimethyl-[1,2,4]triazolo[4,3-b]pyridazin-6-yl)-1-isopropyl-2-(tetrahydrofuran-3-yl)-5,6-dihydropyrrolo[3,4-d]imidazol-4(1H)-one], the IC50 on BRD4 (His-Brd4(44-477)) was 12 nM; at BRD3 (His-Brd3(20-477)) it was less than 11 nM; in assay [1], 17800 nM.

In the case of `Cc1cc(N2C(=O)c3nc(C4CCOC4)n(C(C)C)c3C2c2ccc(Cl)cc2)cc2c1nnn2C` (centres unmarked) [Example 99, 6-(4-chlorophenyl)-5-(1,4-dimethyl-1H-benzo[d][1,2,3]triazol-6-yl)-1-isopropyl-2-(tetrahydrofuran-3-yl)-5,6-dihydropyrrolo[3,4-d]imidazol-4(1H)-one], the IC50 at BRD4 (His-Brd4(44-477)) was 16 nM; at BRD3 (His-Brd3(20-477)) it was 18 nM; in assay [1], 960 nM.

In the case of `COc1ccc(-c2nc3c([nH]2)C(c2ccc(Cl)cc2)N(c2cc(C)c4nnc(C)n4c2)C3=O)cn1` (centres unmarked) [Example 117, 6-(4-chlorophenyl)-5-(3,8-dimethyl-[1,2,4]triazolo[4,3-a]pyridin-6-yl)-2-(6-methoxypyridin-3-yl)-5,6-dihydropyrrolo[3,4-d]imidazol-4(1H)-one], in the assay with THP-1 cells, the GI50 was 81 nM and the “THP-1 TGI” value was 129 nM. Further, in the assay on K-562 cells, the GI50 stood at 207 nM and the “K-562 TGI” value was more than 10000 nM. Further, in the assay on MV-4-11 cells, the GI50 came out at 69.5 nM and the “MV-4-11 TGI” value stood at 112 nM.
